Laboratory results as given in article PMC10288352 (IET Nanobiotechnology, 2023).
Where two headings read alike, the source gives them in different places.

Experiments:
Xanthine oxidase (XO) [1] = biological target: T1, Xanthine oxidase (XO) (Bos taurus, UniProt P80457); test: Determination of xanthine oxidase activity (UV, 290 nm); format: biochemical, cow
Method: Xanthine oxidase activity was determined following a previously reported method [20]. The test compounds were dissolved in DMSO, and the resulting solutions were appropriately diluted for the assay. Xanthine oxidase and xanthine solutions with concentrations of 0.04 U/mL and 0.1 mmol/L, respectively, were prepared using 0.2 mol/L phosphate buffered solution (PBS, pH 7.4) as the solvent. An aliquot of the test solution (0.1 ml) with various concentrations was added separately to XO solution (0.2 ml). The resulting solution was well mixed and incubated for 5 min at 298 K. Then, the substrate (xanthine) solution was pipetted into the mixture to initiate the enzymatic reaction, and the OD value of the resulting solution was recorded every 60 s at 290 nm using a UV spectrometer (UV 2550, SHIMADZU) at 298 K. Xanthine oxidase activity was determined without adding an inhibitor and was considered 100%. […] Each test was performed three times (n = 3). The equation for calculating the relative activity (RA) of XO is as follows: RA (%) = R i/R c × 100%, where R i and R c represent the reaction rates of the solution with and without inhibitors, respectively. The IC50 value was calculated based on the plot of RA versus inhibitor concentration.

Xanthine oxidase (XO) [2] = biological target: T1, Xanthine oxidase (XO); test: Kinetic analysis of XO inhibition (Lineweaver-Burk); format: biochemical, cow
Method: Here, [S] and [I] represent the substrate (xanthine) and inhibitor (EA) concentrations, respectively. The reaction rate and maximum reaction rate are represented by ν and Vmax, respectively. K i and K is indicate the inhibition constants of EA binding with the free XO and XO‐xanthine complex, respectively. The Michaelis‐Menten constant is denoted by the symbol K m . The type of inhibition exerted by EA on XO was determined using Equation (1).

Xanthine oxidase (XO) [3] = biological target: T1, Xanthine oxidase (XO); test: Fluorescence titration (quenching) assay; format: binding, cow; details: for Kq (quenching rate constant): τ0 10^−8 s
Method: An aliquot of XO solution (2.0 ml, 0.04 U/mL) was placed in a quartz cuvette (1 cm) and titrated with 0.1 ml EA solution (0.1 mmol/L) each time. The mixture was then placed in a thermostatic bath, and after 5 min, fluorescence spectra ranging from 290 to 500 nm (excitation: 280 nm) were recorded at 298, 304 and 310 K using the FS5 spectrofluorometer (Edinburgh Instruments, England). The fluorescence background was corrected by subtracting the PBS blank. Additionally, to account for EA's UV absorption, all fluorescence data were corrected according to the following equation: (4) Fc=Fme^A1+A2/2
Here, F m and F c represent the measured and corrected fluorescence, respectively, and A1 and A2 denote EA UV absorbance at 280 nm (excitation wavelength) and 404 nm (emission wavelength), respectively.
The Stern‐Volmer equation shown below was used to distinguish the quenching mechanism. (5) F0/F=1+Kqτ0[Q]=1+Ksv[Q]
The fluorescence intensities with and without EA are indicated by the symbols F and F 0, respectively. The quenching rate constant of the biological macromolecule is represented by K q . The average lifetime of fluorophore is represented by the symbol τ0 (10^−8 s). K SV is the dynamic quenching constant of Stern–Volmer; [Q] is the concentration of EA. […] Then K SV values at 298, 304 and 310 K were calculated to be 1.881 × 10^5, 1.661 × 10^5, and 1.455 × 10^5 L/mol, respectively, using the Stern‐Volmer equation. […] Similarly, the K q values at 298, 304 and 310 K were determined to be 1.881 × 10^13, 1.661 × 10^13, and 1.455 × 10^13 L/(mol·s), respectively.
(6) logF0−F/F=logKa+nlog[Q]
To determine the interaction forces between EA and XO, such as hydrogen bonding, hydrophobic interaction, van der Waals force, and electrostatic force, thermodynamic parameters including […], and Gibbs free energy (△G) were analysed using the Van't Hoff Equation (7) and Gibbs‐Helmholtz Equation (8) at different temperatures. The equations are as follows: (7) logKa=−∆H/2.303RT+∆S/2.303R (8) ∆G=∆H−T∆S

[4] = tested on: PO-induced hyperuricemia mouse model; test: PO-induced hyperuricemic mouse model, serum uric acid; format: in vivo, ICR mice; details: mice
Method: ICR mice weighing 25 ± 2 g were purchased from Wushi Dongwu Co., LTD (Fujian, China). The protocol for animal experiments (#202030) was approved by the Animal Use and Care Committee of Putian University. To establish a hyperuricemic mouse model, we followed our previously reported method, which involved intraperitoneal injection of PO at a dose of 250 mg/kg. […] Mice in all groups except the CG were given PO to raise serum uric acid levels, while the CG mice were given 1 ml of 0.9% NaCl. […] After 2 hours, blood was obtained from the tail vein and was centrifuged at 4000 rpm for 8 min. The serum obtained was kept at −80 °C for the following assay.

mice = test: NOEL estimated for mice from rat value; format: in vivo
xanthine oxidase (XO) [5] = biological target: xanthine oxidase (XO); parameters: method as in PMID 2393948; details: read-out: IC50 (XO inhibition); cited from earlier work
xanthine oxidase (XO) [6] = biological target: xanthine oxidase (XO); parameters: method as in PMID 15234783; details: read-out: IC50 (XO inhibition); cited from earlier work
xanthine oxidase (XO) [7] = biological target: xanthine oxidase (XO); parameters: method as in doi:10.2991/efood.k.190802.004; details: read-out: IC50 (XO inhibition); cited from earlier work
xanthine oxidase (XO) [8] = biological target: xanthine oxidase (XO); parameters: method as in PMID 29567192; details: fluorescence quenching technology; read-out: IC50 (XO inhibition); cited from earlier work
xanthine oxidase (XO) [9] = details: read-out: IC50 (XO inhibition); cited from earlier work
[10] = cited from earlier work
rats = details: cited from earlier work
[11] = Van't Hoff equation, 298, 304 and 310 K

T1 sequence (P80457 whole entry): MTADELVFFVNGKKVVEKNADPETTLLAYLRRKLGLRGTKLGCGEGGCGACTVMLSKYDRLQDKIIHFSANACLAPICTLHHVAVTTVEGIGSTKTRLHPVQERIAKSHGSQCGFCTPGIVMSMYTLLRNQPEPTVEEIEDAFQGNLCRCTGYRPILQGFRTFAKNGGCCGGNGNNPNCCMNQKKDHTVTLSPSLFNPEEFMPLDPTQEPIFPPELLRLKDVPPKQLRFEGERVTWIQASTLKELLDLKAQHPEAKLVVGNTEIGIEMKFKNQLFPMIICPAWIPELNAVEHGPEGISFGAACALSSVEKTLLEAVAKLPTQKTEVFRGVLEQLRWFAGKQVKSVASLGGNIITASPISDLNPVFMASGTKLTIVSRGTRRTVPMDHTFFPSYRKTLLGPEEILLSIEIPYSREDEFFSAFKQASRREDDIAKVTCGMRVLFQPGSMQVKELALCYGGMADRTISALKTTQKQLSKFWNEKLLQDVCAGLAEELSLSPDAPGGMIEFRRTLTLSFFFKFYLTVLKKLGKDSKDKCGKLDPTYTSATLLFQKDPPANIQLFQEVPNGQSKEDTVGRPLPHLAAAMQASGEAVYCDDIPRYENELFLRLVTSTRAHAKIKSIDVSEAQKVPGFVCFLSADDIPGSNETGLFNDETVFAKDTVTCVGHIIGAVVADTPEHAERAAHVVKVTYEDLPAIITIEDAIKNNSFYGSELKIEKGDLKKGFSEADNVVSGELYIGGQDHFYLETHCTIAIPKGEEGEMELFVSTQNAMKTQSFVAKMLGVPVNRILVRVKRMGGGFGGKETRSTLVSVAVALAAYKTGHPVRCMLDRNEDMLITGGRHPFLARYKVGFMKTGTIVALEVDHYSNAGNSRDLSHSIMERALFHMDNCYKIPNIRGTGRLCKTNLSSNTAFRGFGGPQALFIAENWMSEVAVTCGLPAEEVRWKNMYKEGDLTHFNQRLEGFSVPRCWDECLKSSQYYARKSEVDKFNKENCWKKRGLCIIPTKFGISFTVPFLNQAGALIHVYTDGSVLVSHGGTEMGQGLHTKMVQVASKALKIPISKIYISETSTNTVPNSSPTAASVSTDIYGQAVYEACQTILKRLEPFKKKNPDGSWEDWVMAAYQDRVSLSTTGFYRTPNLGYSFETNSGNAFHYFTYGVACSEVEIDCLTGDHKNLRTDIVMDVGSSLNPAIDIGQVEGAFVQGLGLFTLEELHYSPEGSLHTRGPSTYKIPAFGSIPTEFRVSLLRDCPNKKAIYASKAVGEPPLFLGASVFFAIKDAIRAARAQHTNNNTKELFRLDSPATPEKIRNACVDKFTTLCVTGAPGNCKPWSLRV

O=c1oc2c(O)c(O)cc3c(=O)oc4c(O)c(O)cc1c4c23 [EA, Ellagic acid]
IC50 (Xanthine oxidase (XO) [1]; T = 298 K, pH 7.4, [xanthine] = 0.1 mmol/L, [XO] = 0.04 U/mL, read-out: IC50 (XO inhibition)): 22.97 ± 0.12 µM
Reversibility of XO inhibition (Xanthine oxidase (XO) [1]; plots of ν versus [XO], [xanthine] = 0.1 mmol/L): reversible inhibitor
Type of inhibition on XO (Xanthine oxidase (XO) [2]; Lineweaver-Burk plot): mixed‐type inhibitor
Kis (inhibition constant, binding with XO-xanthine complex) (Xanthine oxidase (XO) [2]; [XO] = 0.04 U/mL, xanthine 6.25 to 50 μmol/L): 57.24 ± 0.23 µmol/L
Ki (Xanthine oxidase (XO) [2]; [XO] = 0.04 U/mL, xanthine 6.25 to 50 μmol/L, read-out: Ki (inhibition constant, binding with free XO)): 10.6 ± 0.08 µM
Fluorescence quenching mechanism (Xanthine oxidase (XO) [3]): static quenching
KSV (Stern-Volmer dynamic quenching constant) (Xanthine oxidase (XO) [3]; 298 K): 188100 L/mol
Ksv (Xanthine oxidase (XO) [3]; 298 K): 1.881 ± 0.05 ×10^5 L/mol
n (number of binding sites) (Xanthine oxidase (XO) [3]; 298 K): 1.183 ± 0.02
△G (Xanthine oxidase (XO) [3]; 298 K): -5.753 ± 0.0669 kcal/mol
Kq (quenching rate constant) (Xanthine oxidase (XO) [3]; 298 K): 1.881e+13 M⁻¹ s⁻¹
KSV (Stern-Volmer dynamic quenching constant) (Xanthine oxidase (XO) [3]; 304 K): 166100 L/mol
Ksv (Xanthine oxidase (XO) [3]; 304 K): 1.661 ± 0.03 ×10^5 L/mol
n (number of binding sites) (Xanthine oxidase (XO) [3]; 304 K): 1.236 ± 0.04
△G (Xanthine oxidase (XO) [3]; 304 K): -5.758 ± 0.0765 kcal/mol
Kq (quenching rate constant) (Xanthine oxidase (XO) [3]; 304 K): 1.661e+13 M⁻¹ s⁻¹
KSV (Stern-Volmer dynamic quenching constant) (Xanthine oxidase (XO) [3]; 310 K): 145500 L/mol
Ksv (Xanthine oxidase (XO) [3]; 310 K): 1.455 ± 0.04 ×10^5 L/mol
n (number of binding sites) (Xanthine oxidase (XO) [3]; 310 K): 1.308 ± 0.02
△G (Xanthine oxidase (XO) [3]; 310 K): -5.762 ± 0.0813 kcal/mol
Kq (quenching rate constant) (Xanthine oxidase (XO) [3]; 310 K): 1.455e+13 M⁻¹ s⁻¹
XO fluorescence intensity decreased to (Xanthine oxidase (XO) [3]; EA […] μmol/L, 404 nm, Ex 280 nm): 14.15%
△H (Xanthine oxidase (XO) [3]; [11]): -5.514 ± 0.0598 kcal/mol
△S (Xanthine oxidase (XO) [3]; [11]): 3.36 ± 0.03 J/mol/K
Serum uric acid ([4]; 160 mg/kg intragastrically after PO 250 mg/kg i.p., MG 6.18 ± 0.18): 5.09 ± 0.57 mg/dL
Serum uric acid ([4]; 320 mg/kg intragastrically after PO 250 mg/kg i.p., MG 6.18 ± 0.18): 4.19 ± 0.53 mg/dL
Serum uric acid ([4]; 480 mg/kg intragastrically after PO 250 mg/kg i.p., MG 6.18 ± 0.18): 2.87 ± 0.41 mg/dL
NOEL, estimated value for mice (mice): 4215 mg/kg/day
IC50 (xanthine oxidase (XO) [5]): 3.1 µM
IC50 (xanthine oxidase (XO) [6]): 71.5 µM
IC50 (xanthine oxidase (XO) [7]): 18 µM
IC50 (xanthine oxidase (XO) [8]): 6.5 µM
IC50 (xanthine oxidase (XO) [9]): 166 µM
Bioavailability [10]: very poor
Permeability [10]: limited
Solubility [10]: low
Safe dietary supplement dose (rats; rat, in vivo): ≤ 3011 mg/kg/day
Safe dietary supplement level (rats; rat, in vivo): up to 5%
no-observed-effect level (NOEL) (rats; rats): 3011 mg/kg/day

Oc1ncnc2[nH]ncc12 [allopurinol, reference compound]
Serum uric acid ([4]; 20 mg/kg intragastrically after PO 250 mg/kg i.p., MG 6.18 ± 0.18, CG 2.16 ± 0.51): 2.01 ± 0.34 mg/dL
